Patent US20230192617A1, “AZABICYCLIC(THIO)AMIDES AS FUNGICIDAL COMPOUNDS” (Bayer CropScience Aktiengesellschaft, priority 2020, published 2023)

Tests used:
Alternaria brassicae = assay: In vivo preventive test on Alternaria brassicae (leaf spot on radish or cabbage); conditions: 500 ppm of active ingredient, preventive spray on radish or cabbage, evaluated 3 to 4 days after inoculation, read-out: efficacy
Outline: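 Protective spray on young radish or cabbage: actives in water diluted from DMSO/acetone/Tween 80, with solvent-only controls. Leaves were challenged after 24 h with a spore suspension, and plants were held at 100% RH, 20 °C for 3 to 4 days.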

[1] = tested on: Colletotrichum lindemuthianum; assay: In vivo preventive test on Colletotrichum lindemuthianum (leaf spot on bean); conditions: 168 h, 500 ppm of active ingredient, preventive spray on bean, evaluated 7 days after inoculation, read-out: efficacy
Outline: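 Young bean plants sprayed with compound in DMSO/acetone/Tween 80 diluted in water; solvent-only controls. Inoculated 24 h later with C. lindemuthianum spore suspension, then kept 24 h at 20 °C/100% RH and 6 days at 20 °C/90% RH.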

Septoria tritici = assay: B-9. Septoria tritici in vitro cell test; format: cell-based; conditions: Zymoseptoria tritici, 168 h; 20 ppm of active ingredient; 7 days incubation; liquid culture, absorbance; read-out: efficacy (inhibition of fungal growth)
Outline: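 Compounds from DMSO stocks (final DMSO ≤1%) were added to liquid medium containing S. tritici spores to test inhibition of germination and mycelial growth. After 7 days, mycelium growth was read spectrometrically and inhibition derived from absorbance versus fungicide-free control wells.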

Compound | pest or weed control at 500 ppm (Alternaria brassicae) | pest or weed control at 500 ppm [1] | inhibition at 20 ppm (Septoria tritici)
O=C(NCC(F)c1ccc(Cl)cc1Cl)c1c(Oc2cccc(C(F)(F)F)c2)nnc2c1CCCC2 (stereo not drawn) [I-118] | 90 to 100% | 90 to 100% | 90 to 100%
Cc1cc(Br)ccc1C(F)(F)CNC(=O)c1c(Oc2cccc(Cl)c2)nnc2c1CCCC2 [I-151] | 90 to 100% | 90 to 100% | 90 to 100%
O=C(NCC(F)c1ccc(Cl)cc1Cl)c1c(Oc2cccc(C(F)(F)F)c2)nnc2c1CCC2 (stereo not drawn) [I-186] | 90 to 100% | 90 to 100% | 90 to 100%
Cc1ccc(C(F)(F)CNC(=O)c2c(Oc3cccc(Br)c3F)nnc3ccccc23)c(C)c1 [I-227] | 90 to 100% | 80 to 89% | 70 to 79%
O=C(NCC(F)(F)c1ccc(Br)cc1Cl)c1c(Oc2cccc(C(F)(F)F)c2)nnc2c1CCC2 [I-212] | 90 to 100% | 90 to 100% | 90 to 100%
